The supplement of paper PMC10307832

Columns and labels:
Test in all cases: relative viability (nuclei count vs DMSO), 5 days (fraction); higher = more cells survive
AZD8055 = compound: COc1ccc(-c2ccc3c(N4CCOC[C@@H]4C)nc(N4CCOC[C@@H]4C)nc3n2)cc1CO [AZD8055]
In short: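 Hoechst staining, done together with fixation and permeabilisation, marked nuclei for 4× imaging and MetaXpress counting. This followed 5 days without medium change after lung cancer cell lines, kept overnight at 37 °C in 1536-well plates, were pinned with five library-drug doses (not always all listed) spaced by √10 on vehicle-anchored plates. Viability is the ratio of treated-well to vehicle-well nuclei, expressed as a median across plates. Plates passed only at control CV below 25% with at least one doubling.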

AZD8055 + Palbociclib = compound: COc1ccc(-c2ccc3c(N4CCOC[C@@H]4C)nc(N4CCOC[C@@H]4C)nc3n2)cc1CO [AZD8055] + CC(=O)c1c(C)c2cnc(Nc3ccc(N4CCNCC4)cn3)nc2n(C2CCCC2)c1=O [Palbociclib] (partner 0.5 µM)
In short: (§1)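 Relative viability was taken as the ratio of nuclei in treated wells to nuclei in vehicle wells. Lung cancer cell lines in 1536-well plates received compounds by pin tool one day after seeding, either one drug alone or a fixed anchor-drug dose plus five library-drug doses (not always all listed) in √10 steps. Nuclei were counted on 4× images after 5 days of treatment, and values are medians of duplicate plates.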

AZD8055 + Foretinib = compound: COc1ccc(-c2ccc3c(N4CCOC[C@@H]4C)nc(N4CCOC[C@@H]4C)nc3n2)cc1CO [AZD8055] + COc1cc2c(Oc3ccc(NC(=O)C4(C(=O)Nc5ccc(F)cc5)CC4)cc3F)ccnc2cc1OCCCN1CCOCC1 [Foretinib] (partner 0.25 µM)
In short: as §1

AZD8055 + OSI-027 = compound: COc1ccc(-c2ccc3c(N4CCOC[C@@H]4C)nc(N4CCOC[C@@H]4C)nc3n2)cc1CO [AZD8055] + COc1cccc2cc(-c3nc([C@H]4CC[C@H](C(=O)O)CC4)n4ncnc(N)c34)[nH]c12 [OSI-027] (partner 0.5 µM)
In short: as §1

Cell Line	relative viability (AZD8055; 0.01 µM)	relative viability (AZD8055; 0.03162 µM)	relative viability (AZD8055; 0.1 µM)	relative viability (AZD8055; 0.3162 µM)	relative viability (AZD8055; 1 µM)	relative viability (AZD8055 + Palbociclib; first compound 0.01 µM)	relative viability (AZD8055 + Palbociclib; first compound 0.03162 µM)	relative viability (AZD8055 + Palbociclib; first compound 0.1 µM)	relative viability (AZD8055 + Palbociclib; first compound 0.3162 µM)	relative viability (AZD8055 + Palbociclib; first compound 1 µM)	relative viability (AZD8055 + Foretinib; first compound 0.01 µM)	relative viability (AZD8055 + Foretinib; first compound 0.03162 µM)	relative viability (AZD8055 + Foretinib; first compound 0.1 µM)	relative viability (AZD8055 + Foretinib; first compound 0.3162 µM)	relative viability (AZD8055 + Foretinib; first compound 1 µM)	relative viability (AZD8055 + OSI-027; first compound 0.01 µM)	relative viability (AZD8055 + OSI-027; first compound 0.03162 µM)	relative viability (AZD8055 + OSI-027; first compound 0.1 µM)	relative viability (AZD8055 + OSI-027; first compound 0.3162 µM)	relative viability (AZD8055 + OSI-027; first compound 1 µM)
NCI-H1651	1.08	0.847	0.871	0.61	0.389	0.507	0.472	0.478	0.298	0.253	0.702	0.774	0.575	0.363	0.263	0.871	0.682	0.603	0.32	0.413
NCI-H1666	1.1	1.07	0.925	0.802	0.675	0.669	0.643	0.624	0.652	0.674	0.981	1	0.969	0.694	0.615	0.894	0.905	0.887	0.747	0.717
NCI-H1734	1.08	0.732	0.646	0.385	0.276	0.378	0.386	0.288	0.215	0.192	0.893	0.748	0.565	0.312	0.221	0.665	0.553	0.493	0.319	0.225
NCI-H1755	1.02	0.841	0.825	0.537	0.569	0.42	0.44	0.388	0.368	0.359	0.885	0.788	0.698	0.485	0.373	0.752	0.698	0.649	0.544	0.537
NCI-H1793	0.669	0.443	0.287	0.212	0.222	0.216	0.218	0.163	0.22	0.211	0.457	0.35	0.222	0.189	0.183	0.291	0.215	0.196	0.18	0.202
NCI-H1915	1.01	0.81	0.959	0.63	0.513	0.491	0.44	0.425	0.282	0.203	1.12	1.04	1.01	0.574	0.527	0.664	0.551	0.656	0.547	0.459
NCI-H1944	1.01	0.786	0.673	0.335	0.316	0.291	0.264	0.22	0.174	0.152	1.04	0.793	0.648	0.409	0.321	0.418	0.454	0.378	0.297	0.24
NCI-H1975	1.05	0.812	0.55	0.347	0.283	0.712	0.388	0.252	0.151	0.161	0.86	0.73	0.459	0.284	0.24	0.677	0.56	0.375	0.237	0.235
NCI-H1993	0.791	0.72	0.577	0.545	0.666	0.596	0.47	0.39	0.408	0.404	0.696	0.584	0.51	0.503	0.577	0.545	0.502	0.625	0.353	0.568
NCI-H2009	1.03	0.918	0.924	0.501	0.344	0.227	0.156	0.203	0.178	0.149	1.27	1.24	1.13	0.912	0.367	0.72	0.562	0.641	0.338	0.292
NCI-H2023	0.901	0.618	0.362	0.163	0.153	0.264	0.229	0.0912	0.086	0.113	0.787	0.817	0.654	0.26	0.126	0.445	0.347	0.266	0.13	0.116
NCI-H2085	1	0.987	0.723	0.43	0.42	0.493	0.448	0.386	0.37	0.3	0.945	0.919	0.602	0.278	0.329	0.744	0.852	0.551	0.34	0.355
NCI-H2087	1.14	0.908	0.936	0.458	0.349	0.212	0.198	0.159	0.113	0.141	1.04	0.857	0.676	0.461	0.315	0.77	0.606	0.577	0.412	0.311
NCI-H2126	0.973	0.926	0.743	0.515	0.418	0.323	0.329	0.362	0.284	0.323	1.32	1.05	0.91	0.575	0.593	0.762	0.743	0.717	0.528	0.449
NCI-H2170	1.01	0.881	0.735	0.365	0.345	0.331	0.314	0.233	0.173	0.143	1.07	1.04	0.868	0.451	0.397	0.665	0.701	0.624	0.386	0.392
NCI-H2228	1.29	0.757	0.378	0.201	0.213	0.696	0.477	0.388	0.168	0.166	0.739	0.54	0.385	0.166	0.241	0.548	0.446	0.281	0.176	0.234
